We go through 1 compound from publication PMC5570900, “Exploiting a novel conformational switch to control innate immunity mediated by complement protein C3a” (Nature Communications, 2017).

Assay [1] concerns the target T1, C3aR (Homo sapiens, UniProt Q16581).
T1 sequence (Q16581 1-482): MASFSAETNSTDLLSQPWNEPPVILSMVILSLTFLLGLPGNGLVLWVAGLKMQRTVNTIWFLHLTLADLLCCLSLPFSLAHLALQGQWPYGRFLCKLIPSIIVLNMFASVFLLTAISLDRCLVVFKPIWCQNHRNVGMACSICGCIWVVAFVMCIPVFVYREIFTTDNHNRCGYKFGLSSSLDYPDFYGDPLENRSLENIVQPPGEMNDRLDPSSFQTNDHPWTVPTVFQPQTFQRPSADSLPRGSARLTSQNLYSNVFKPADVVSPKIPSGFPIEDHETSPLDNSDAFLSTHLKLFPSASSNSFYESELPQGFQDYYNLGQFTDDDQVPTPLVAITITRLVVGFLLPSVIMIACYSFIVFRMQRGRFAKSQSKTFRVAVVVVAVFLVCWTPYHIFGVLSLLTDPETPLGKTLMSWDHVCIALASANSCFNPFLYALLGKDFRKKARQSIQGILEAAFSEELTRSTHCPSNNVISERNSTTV
Nature of the assay: Antagonism of agonist 3-induced iCa2+ release in HMDMs (Schild analysis). The class given is cell-based. Also noted: Concentration-dependent Ca^2+ release in human monocyte-derived macrophages (HMDMs); endogenous in cells; host or cells: primary human monocyte-derived macrophages (HMDMs). The procedure:
(§1) HMDMs were seeded to a 96-well clear-bottom black-wall assay plate at a density of 5 × 10^4 cells per well and allowed to adhere overnight. Prior to assay, cells were incubated with dye-loading buffer (Hank’s balance salt solution (HBSS) buffer, 4 μM Fluo-3 AM, 25 μl Pluronic acid F-127 and 1% fetal bovine serum) for 1 h at 37 °C. Cells were then washed once with assay buffer (HBSS supplemented with 2.5 mM probenecid and 20 mM HEPES, pH 7.4). Intracellular calcium release was monitored using a fluorescence imaging plate reader (excitation 495 nm, emission 520 nm). The percentage responses were plotted against logarithmic concentrations of each test compound[42].

Assay [2] concerns the target T1, C3aR. Nature of the assay: Inhibition of hC3a-induced Ca2+ release in human monocyte-derived macrophages. The class given is cell-based. Also noted: Concentration-dependent Ca^2+ release in human monocyte-derived macrophages (HMDMs); endogenous in cells; host or cells: primary human monocyte-derived macrophages (HMDMs). To be noted: HMDMs, hC3a 100 nM, n ≥ 3, ± SEM. Here is the method:
HMDMs were isolated using Ficoll-paque density centrifugation (GE Healthcare Bio-Science, Uppsala, Sweden) from buffy coat (of anonymous human donors) provided by the Australian Red Cross Blood Service, Brisbane. CD14^+ monocytes were positively selected using CD14 MicroBeads (Miltenyi Biotech, Auburn, USA)[40], [41]. CD14^+ monocytes were differentiated to HMDMs using 100 ng/mL of recombinant human macrophage colony-stimulating factor (PeptroTech, Rocky Hill, USA) for 7 days in Iscove’s modified Dulbecco’s media supplemented with 10% fetal bovine serum, penicillin (100 U/mL), streptomycin (100 µg/mL) and L-glutamine (2 mM). HMDMs were supplemented after 5 days with fresh medium containing 10 ng/ml macrophage colony-stimulating factor and collected by gentle scraping on day 7.
as §1

What is called IC50 is the point on the concentration scale where inhibition reaches its midpoint. A higher IC50 goes with weaker potency in that assay. In the case of `N=C(N)NCCCC(NC(=O)c1ccc(C(c2ccccc2)c2ccccc2)s1)C(=O)O` (stereo not drawn) [Compound 6], the “Mode of antagonism of agonist 3-induced Ca2+ release” value at C3aR [1] is recorded as “insurmountable antagonism”. The Schild plot slope on C3aR [1] (agonist 3 with 0–1000 nM antagonist 6, pre-treated 30 min, r2 = 0.99) was determined as 0.77 ± 0.05. The compound further had an IC50 on C3aR [2] of 0.085 ± 0.04 µM.
